# Results from US9879043B1, “Synthesis of non-natural cofactor analogs of S-adenosyl-L-methionine using methionine adenosyltransferase” (University of Kentucky Research Foundation, priority 2013, dated 2018).
# Columns and labels:
# Assay type in all cases: biochemical
# [1] = biological target: human MAT II catalytic alpha and regulatory beta subunit (hMAT2) (Homo sapiens, UniProt P31153); test: MAT assay, turnover of S/Se-Met analogs to S(Se)AM analogs (RP-HPLC end point); details: 2 mM Met analog, 1 mM ATP, 5 μM MAT, pH 8, 4 h, 37° C.; average of two assays
# Method: (§1) Standard uniform assay conditions (2 mM Met analog, 1 mM ATP, 5 μM MAT, 25 mM Tris, 5 mM MgCl2, 50 mM KCl, pH 8, 4 h) were adopted to facilitate this broad assessment. For the thermophilic counterpart (mMAT), reactions were conducted at 65° C., while all other reactions were incubated at 37° C. Production of SAM analogs was determined by an RP-HPLC end point assay to afford complete analysis of the desired SAM analog and/or any corresponding degradation products known to directly derive from the desired SAM analog intermediate.
# (§2) To monitor MAT reactions, analytical RP HPLC employed a Luna C18 column (5 μm, 4.6 mm×250 mm; Phenomenex, Torrance, Calif., USA) [gradient of 10% B to 40% B over 15 min, 40% B to 75% B over 5 min (A=10 mM NaH2PO4, 5 mM octane sulfonic acid, pH was adjusted to 3.5 using phosphoric acid; B=acetonitrile) flow rate=1 mL min^−1; A254].
# (§3) The sMAT and mMAT reactions were conducted at 65° C. while hMATs and eMAT were incubated at 37° C. Reactions were quenched by adding an equal volume of methanol followed by centrifugation (10,000×g for 15 min) to remove the precipitated protein and product formation for each reaction was subsequently analyzed by RP-HPLC using Method D (FIG. 15, first column). For each reaction, percent yield was based upon the integration of species at 254 nm and calculated by dividing the integrated area of product and/or decomposed product by the sum of integrated area of product and/or decomposed product and the remaining substrate. The assays were repeated twice under identical conditions, and Table 2 (and FIG. 5) represents an average value of two assays. The inclusion of adenine and 5′-R-thio-5′-adenosine in these calculations is based upon the established SAM and ATP chemical decomposition pathways which indicate adenine and 5′-R-thio-5′-adenosine to only derive from SAM (not ATP). All putative products were subsequently confirmed by high resolution electrospray ionization (ESI) mass spectra with positive (+) and/or negative (−) mode.
# [2] = biological target: human MAT II catalytic alpha subunit alone (hMAT2A) (Homo sapiens, UniProt P31153); test: as above; details: 2 mM Met analog, 1 mM ATP, 5 μM MAT, pH 8, 4 h, 37° C.; average of two assays
# Method: as §1, §2, §3
# [3] = biological target: Escherichia coli MAT (eMAT) (Escherichia coli, UniProt P0A817); test: as above; details: 2 mM Met analog, 1 mM ATP, 5 μM MAT, pH 8, 4 h, 37° C.; average of two assays
# Method: as §1, with “intermediate. Putative SAM analog and SAM-derived degradative product formation was subsequently confirmed via high-resolution mass spectrometry (HRMS) analysis for all positive reactions (see Table 2).” for “intermediate.”
# as §2
# as §3, with “In vitro MAT reactions were conducted in a volume of 50 μl with 2 mM S/Se-alkylated analog (compounds 2-30), 1 mM ATP and 5 μM purified MAT in 25 mM Tris buffer pH 8.0, 5 mM MgCl2, 50 mM KCl for 4 h. The sMAT” for “The sMAT”
# [4] = biological target: human MAT I catalytic subunit alpha (hMAT1A) (Homo sapiens, UniProt Q00266); test: as above; details: 2 mM Met analog, 1 mM ATP, 5 μM MAT, pH 8, 4 h, 37° C.; average of two assays
# Method: as §1, §2, §3
# [5] = biological target: T1, Methanocaldococcus jannaschii MAT (mMAT) (Methanocaldococcus jannaschii, UniProt Q58605); details: 2 mM Met analog, 1 mM ATP, 5 μM MAT, pH 8, 4 h, 65° C.; average of two assays
# T1 sequence (Q58605 1-406): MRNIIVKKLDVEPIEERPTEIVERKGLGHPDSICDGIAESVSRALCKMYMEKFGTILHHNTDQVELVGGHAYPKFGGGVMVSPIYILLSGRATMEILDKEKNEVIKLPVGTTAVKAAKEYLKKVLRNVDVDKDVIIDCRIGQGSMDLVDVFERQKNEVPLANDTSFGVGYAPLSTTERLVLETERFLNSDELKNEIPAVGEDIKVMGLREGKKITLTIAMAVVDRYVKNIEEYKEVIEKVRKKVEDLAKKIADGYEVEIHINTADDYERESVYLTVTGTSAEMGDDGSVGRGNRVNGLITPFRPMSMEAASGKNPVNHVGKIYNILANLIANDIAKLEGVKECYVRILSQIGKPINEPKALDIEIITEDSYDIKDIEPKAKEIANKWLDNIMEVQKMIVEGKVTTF
# Method: as §1, §2, §3
# [6] = biological target: T2, Sulfolobus solfataricus MAT (sMAT) (Saccharolobus solfataricus, UniProt Q980S9); details: 2 mM analog, 1 mM ATP, 5 μM sMAT, pH 8.0, 4 h at 65° C.; average of two assays
# T2 sequence (Q980S9 1-404): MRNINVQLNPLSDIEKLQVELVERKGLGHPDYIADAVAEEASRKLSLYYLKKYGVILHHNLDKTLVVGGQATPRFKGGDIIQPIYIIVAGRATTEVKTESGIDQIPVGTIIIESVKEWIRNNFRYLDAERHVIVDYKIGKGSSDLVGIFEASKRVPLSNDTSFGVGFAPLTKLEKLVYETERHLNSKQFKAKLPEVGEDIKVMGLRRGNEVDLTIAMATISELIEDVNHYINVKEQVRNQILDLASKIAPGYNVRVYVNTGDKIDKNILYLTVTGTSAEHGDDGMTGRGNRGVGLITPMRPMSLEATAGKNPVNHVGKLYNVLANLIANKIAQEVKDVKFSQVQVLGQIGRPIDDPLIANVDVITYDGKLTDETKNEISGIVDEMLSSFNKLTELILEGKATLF
# Method: In-vitro sMAT assay: In vitro sMAT reactions were conducted in a volume of 50 μl with 2 mM S/Se-alkylated analog, 1 mM ATP and 5 μM purified sMAT in 25 mM Tris buffer pH 8.0, 5 mM MgCl2, 50 mM KCl for 4 h at 65° C. Reactions were quenched by adding an equal volume of methanol followed by centrifugation (10,000×g for 15 min) to remove the precipitated protein and product formation for each reaction was subsequently analyzed by reverse phase HPLC (RP-HPLC) using method described below. For each reaction, percent yield was based upon the integration of species at 254 nm and calculated by dividing the integrated area of product and/or decomposed product by the sum of integrated area of product and/or decomposed product and the remaining substrate. The assays were repeated twice under identical conditions, and Table 4 (and FIG. 17) represents an average value of two assays. The inclusion of adenine and 5′-R-thio-5′-adenosine in these calculations is based upon the established SAM and ATP chemical decomposition pathways which indicate adenine and 5′-R-thio-5′-adenosine to only derive from SAM (not ATP). All putative products were subsequently confirmed by high resolution electrospray ionization (ESI) mass spectra with positive (+) and/or negative (−) mode.
# RP-HPLC method: Reactions were quenched by the addition of equal volume of methanol followed by centrifugation at 10,000 g for 15 min to remove precipitated protein before applying on an analytical Varian ProStar HPLC [Luna C18 column, 5 μm, 4.6 mm×250 mm; Phenomenex, Torrance, Calif., USA; gradient of 10% B to 40% B over 15 min, 40% B to 75% B over 5 min (A=10 mM NaH2PO4, 5 mM octane sulfonic acid, pH was adjusted to 3.5 using phosphoric acid; B=acetonitrile) flow rate=1 mL min^−1; A254].
Structure (SMILES),Percentage Turn-over hMAT2 [1],Percentage Turn-over hMAT2A [2],Percentage Turn-over eMAT [3],Percentage Turn-over hMAT1A [4],Percentage Turn-over mMAT [5],Percentage Turn-Over (sMAT) [6]
"C[Se]CC[C@H](N)C(=O)O [2-Se, L-selenomethionine, reference compound]",100%,100%,–,–,–,–
"CSCC[C@H](N)C(=O)O [compound 2, L-methionine]",100%,100%,–,–,–,–
"CC[Se]CC[C@H](N)C(=O)O [compound 3-Se, (2S)-2-amino-4-(ethylselanyl)butanoic acid]",82%,53%,–,–,–,–
"C#CCSCC[C@H](N)C(=O)O [compound 4, (2S)-2-amino-4-(prop-2-yn-1-ylsulfanyl)butanoic acid]",20%,6%,2%,2%,6%,36%
"C#CC[Se]CC[C@H](N)C(=O)O [compound 4-Se, (2S)-2-amino-4-(prop-2-yn-1-ylselanyl)butanoic acid]",58%,44%,–,–,–,–
"N#CCSCC[C@H](N)C(=O)O [compound 6, (2S)-2-amino-4-[(cyanomethyl)sulfanyl]butanoic acid]",20%,13%,2%,2%,6%,68%
"N#CC[Se]CC[C@H](N)C(=O)O [compound 6-Se, (2S)-2-amino-4-[(cyanomethyl)selanyl]butanoic acid]",33%,23%,–,–,–,–
"C=CCSCC[C@H](N)C(=O)O [compound 7, (2S)-2-amino-4-(prop-2-en-1-ylsulfanyl)butanoic acid]",52%,50%,2%,5%,16%,27%
"C=CC[Se]CC[C@H](N)C(=O)O [compound 7-Se, (2S)-2-amino-4-(prop-2-en-1-ylselanyl)butanoic acid]",59%,42%,–,–,–,–
"CCC[Se]CC[C@H](N)C(=O)O [compound 8-Se, (2S)-2-amino-4-(propylselanyl)butanoic acid]",74%,24%,–,–,–,–
"CC(C)[Se]CC[C@H](N)C(=O)O [compound 9-Se, (2S)-2-amino-4-(propan-2-ylselanyl)butanoic acid]",10%,11%,–,–,–,–
"C#CCC[Se]CC[C@H](N)C(=O)O [compound 10-Se, (2S)-2-amino-4-(but-3-yn-1-ylselanyl)butanoic acid]",55%,22%,–,–,–,–
"C=C(C)C[Se]CC[C@H](N)C(=O)O [compound 12-Se, (2S)-2-amino-4-[(2-methylprop-2-en-1-yl)selanyl]butanoic acid]",12%,11%,–,–,–,–
"CCCC[Se]CC[C@H](N)C(=O)O [compound 13-Se, (2S)-2-amino-4-(butylselanyl)butanoic acid]",49%,26%,–,–,–,–
"CC(C)=CC[Se]CC[C@H](N)C(=O)O [compound 19-Se, (2S)-2-amino-4-[(3-methylbut-2-en-1-yl)selanyl]butanoic acid]",15%,9%,–,–,–,–
"[N-]=[N+]=NC/C=C/C[Se]CC[C@H](N)C(=O)O [compound 23-Se, (2S)-2-amino-4-{[(2E)-4-azidobut-2-en-1-yl]selanyl}butanoic acid]",15%,9%,–,–,–,–
"NC/C=C/C[Se]CC[C@H](N)C(=O)O [compound 24-Se, (2S)-2-amino-4-{[(2E)-4-aminobut-2-en-1-yl]selanyl}butanoic acid]",25%,16%,–,–,–,–
